Experimental data from patent publication US20230105599A1, “Aqueous Formulations Containing Povidone Iodine for Effective Treatment and Prevention of Virus Infections” (priority 2020, published 2023).
Like-named read-outs stand apart in the source and are kept apart here.

Assays:
Assay type in all cases: cell-based
Human Adenovirus Type 5 = experiment: In-vitro anti-viral (virucidal) assay, cytopathic effect study with human AE549 cells; conditions: 70% ethanol
Protocol: To determine whether contact with aqueous formulation of this invention containing 0.6% PVP-I inactivates (“kills”) virus, the aqueous formulation was mixed directly with virus for 30±5 minutes, then neutralized and the surviving virus was quantified.

[1] = system: Influenza Virus A H1N1, California July 2009; experiment: In vitro virucidal assay, endpoint dilution CCID50 on MDCK cells; conditions: 95% ethanol control, 37° C.
Protocol: Formulation B containing 0.6% PVP-I (for nasal spray) was tested for virucidal assay against influenza virus (Influenza Virus A H1N1, California July 2009). Formulation B was diluted with artificial nasal fluid as follows: neat, 1/1.8, 1/3.2 and 1/10. Other controls were 95% ethanol and MEM solution. Virus solution was added to test dilution at 1/10 and incubated for 30 seconds and 2 minutes at 37° C. And thus, the final concentration of solution tested were 90%, 50%, 28% and 9%. Following the incubation period, samples were neutralized by a 1/10 dilution in test media containing 10% FBS. The surviving virus in each tube was determined using a standard endpoint dilution CCID50 assay as follows. Samples were diluted 1/10 in series and each dilution added to 4 replicate columns of 96-well plates seeded with 80-100% confluent MDCK cells. Plates were incubated for 6 days at 37° C. with 5% CO2 then scored for the presence or absence of cytopathic effect (CPE). Virus titer (CCID50) was calculated using the Reed-Muench method (1948). The log reduction value (LRV) of the compound compared to the virus control was calculated. The entire procedure was repeated in triplicate. Toxicity controls were performed to show whether test compound toxicity would confound results by killing the cells in the absence of virus.

SARS-CoV-2 = conditions: 45% ethanol control, 37° C.; for Viral Titer: mean of 3 ± SD

CCO [Ethanol]
virucidal effect of ethanol control (Human Adenovirus Type 5): fully effective | LRV (log reduction value) ([1]; contact time 0.5 min): 1.5 | Viral Titer ([1]; contact time 0.5 min): 4.5 Log10 CCID50 of virus per mL | LRV (log reduction value) ([1]; contact time 2 min): 4.4 | Viral Titer ([1]; contact time 2 min): 2.3 Log10 CCID50 of virus per mL | LRV (log reduction value) (SARS-CoV-2; contact time 0.5 min): 3.5 | Viral Titer (SARS-CoV-2; contact time 0.5 min): <1.7 ± 0.0 Log10 CCID50 of virus per mL | LRV (log reduction value) (SARS-CoV-2; contact time 2 min): 1.9 | Viral Titer (SARS-CoV-2; contact time 2 min): <1.7 ± 0.0 Log10 CCID50 of virus per mL | LRV (log reduction value) (SARS-CoV-2; contact time 10 min): 3.3 | Viral Titer (SARS-CoV-2; contact time 10 min): <0.67 ± 0.0 Log10 CCID50 of virus per mL
